Test results: patent US10131652B2, “Pyrimidinyloxy benzene derivatives as herbicides” (E. I. DU PONT DE NEMOURS AND COMPANY, priority 2014, dated 2018)

Assays:
Assay in all cases: Test F pre-/postemergence plant response
Assay type in all cases: in vivo
Settings in all cases: scale 0 to 100
[1] = tested on: Brazilian crabgrass (Digitaria horizontalis)
Outline: (§1)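 Visual control ratings were scored 0 (no effect) to 100 (complete control) versus untreated plants after 14–21 greenhouse days. Compounds, formulated in a surfactant-containing non-phytotoxic solvent, were applied both to silt loam at planting (preemergence) and to 1- to 4-leaf plants 2–18 cm tall (postemergence).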

[2] = tested on: Italian ryegrass (Lolium multiflorum)
Outline: as §1

corn (Zea mays) = tested on: corn (Zea mays)
Outline: as §1

[3] = tested on: fall panicum (Panicum dichotomiflorum)
Outline: as §1

[4] = tested on: field bindweed (Convolvulus arvensis)
Outline: as §1

[5] = tested on: goosegrass (Eleusine indica)
Outline: as §1

[6] = tested on: hairy beggarticks (Bidens pilosa)
Outline: as §1

kochia (Kochia scoparia) = tested on: kochia (Kochia scoparia)
Outline: as §1

[7] = tested on: large (Lg) crabgrass (Digitaria sanguinalis)
Outline: as §1

[8] = tested on: nightshade (eastern black nightshade, Solanum ptycanthum)
Outline: as §1

[9] = tested on: ragweed (common ragweed, Ambrosia elatior)
Outline: as §1

soybean (Glycine max) = tested on: soybean (Glycine max)
Outline: as §1

[10] = tested on: surinam grass (Brachiaria decumbens)
Outline: as §1

[11] = tested on: velvetleaf (Abutilon theophrasti)
Outline: as §1

[12] = tested on: wild poinsettia (Euphorbia heterophylla)
Outline: as §1

[13] = tested on: yellow nutsedge (Cyperus esculentus)
Outline: as §1

Cc1cc(-c2ccccc2Oc2ncc(Cl)cn2)on1 [Compound 58]
90: Plant response rating, Panicum, Fall ([3]; Preemergence) | Plant response rating, Nightshade ([8]; Preemergence) | Plant response rating, Soybean (soybean (Glycine max); 62 g ai/ha Postemergence)
100: Plant response rating, Panicum, Fall ([3]; 125 g ai/ha Preemergence) | Plant response rating, Velvetleaf ([11]; 31 g ai/ha Preemergence) | Plant response rating, Velvetleaf ([11]; 125 g ai/ha Preemergence) | Plant response rating, Velvetleaf ([11]; Preemergence)
25: Plant response rating, Ragweed ([9]; Preemergence)
40: Plant response rating, Beggarticks ([6]; 8 g ai/ha Postemergence) | Plant response rating, Beggarticks ([6]; 16 g ai/ha Postemergence) | Plant response rating, Kochia (kochia (Kochia scoparia); 16 g ai/ha Postemergence)
15: Plant response rating, Panicum, Fall ([3]; 8 g ai/ha Postemergence) | Plant response rating, Panicum, Fall ([3]; 125 g ai/ha Postemergence)
75: Plant response rating, Crabgrass, Brazil ([1]; 125 g ai/ha Preemergence) | Plant response rating, Goosegrass ([5]; 125 g ai/ha Preemergence) | Plant response rating, Kochia (kochia (Kochia scoparia); 125 g ai/ha Postemergence) | Plant response rating, Ragweed ([9]; 125 g ai/ha Preemergence) | Plant response rating, Soybean (soybean (Glycine max); 125 g ai/ha Preemergence)
10: Plant response rating, Crabgrass, Brazil ([1]; 62 g ai/ha Postemergence) | Plant response rating, Crabgrass, Brazil ([1]; 125 g ai/ha Postemergence) | Plant response rating, Panicum, Fall ([3]; 62 g ai/ha Postemergence) | Plant response rating, Field Bindweed ([4]; 8 g ai/ha Postemergence) | Plant response rating, Field Bindweed ([4]; 16 g ai/ha Postemergence) | Plant response rating, Beggarticks ([6]; 62 g ai/ha Preemergence) | Plant response rating, Soybean (soybean (Glycine max); 16 g ai/ha Preemergence)
0: Plant response rating, Crabgrass, Brazil ([1]; 8 g ai/ha Preemergence) | Plant response rating, Crabgrass, Brazil ([1]; 16 g ai/ha Preemergence) | Plant response rating, Crabgrass, Brazil ([1]; 31 g ai/ha Preemergence) | Plant response rating, Ryegrass, Italian ([2]; 8 g ai/ha Postemergence) | Plant response rating, Ryegrass, Italian ([2]; 8 g ai/ha Preemergence) | Plant response rating, Ryegrass, Italian ([2]; 16 g ai/ha Postemergence) | Plant response rating, Ryegrass, Italian ([2]; 16 g ai/ha Preemergence) | Plant response rating, Ryegrass, Italian ([2]; 31 g ai/ha Postemergence) | Plant response rating, Ryegrass, Italian ([2]; 31 g ai/ha Preemergence) | Plant response rating, Ryegrass, Italian ([2]; 62 g ai/ha Postemergence) | Plant response rating, Ryegrass, Italian ([2]; 125 g ai/ha Postemergence) | Plant response rating, Ryegrass, Italian ([2]; 125 g ai/ha Preemergence) | Plant response rating, Ryegrass, Italian ([2]; Preemergence) | Plant response rating, Corn (corn (Zea mays); 8 g ai/ha Postemergence) | Plant response rating, Corn (corn (Zea mays); 8 g ai/ha Preemergence) | Plant response rating, Corn (corn (Zea mays); 16 g ai/ha Postemergence) | Plant response rating, Corn (corn (Zea mays); 16 g ai/ha Preemergence) | Plant response rating, Corn (corn (Zea mays); 31 g ai/ha Postemergence) | Plant response rating, Corn (corn (Zea mays); 31 g ai/ha Preemergence) | Plant response rating, Corn (corn (Zea mays); 62 g ai/ha Preemergence) | Plant response rating, Corn (corn (Zea mays); 125 g ai/ha Preemergence) | Plant response rating, Panicum, Fall ([3]; 8 g ai/ha Preemergence) | Plant response rating, Panicum, Fall ([3]; 16 g ai/ha Postemergence) | Plant response rating, Panicum, Fall ([3]; 31 g ai/ha Postemergence) | Plant response rating, Field Bindweed ([4]; 8 g ai/ha Preemergence) | Plant response rating, Field Bindweed ([4]; 16 g ai/ha Preemergence) | Plant response rating, Field Bindweed ([4]; 31 g ai/ha Preemergence) | Plant response rating, Field Bindweed ([4]; 62 g ai/ha Preemergence) | Plant response rating, Field Bindweed ([4]; 125 g ai/ha Preemergence) | Plant response rating, Goosegrass ([5]; 8 g ai/ha Preemergence) | Plant response rating, Goosegrass ([5]; 16 g ai/ha Preemergence) | Plant response rating, Beggarticks ([6]; 8 g ai/ha Preemergence) | Plant response rating, Beggarticks ([6]; 16 g ai/ha Preemergence) | Plant response rating, Beggarticks ([6]; 31 g ai/ha Preemergence) | Plant response rating, Kochia (kochia (Kochia scoparia); 8 g ai/ha Preemergence) | Plant response rating, Kochia (kochia (Kochia scoparia); 16 g ai/ha Preemergence) | Plant response rating, Kochia (kochia (Kochia scoparia); 31 g ai/ha Preemergence) | Plant response rating, Kochia (kochia (Kochia scoparia); Preemergence) | Plant response rating, Crabgrass, Large ([7]; 8 g ai/ha Preemergence) | Plant response rating, Nightshade ([8]; 8 g ai/ha Preemergence) | Plant response rating, Ragweed ([9]; 8 g ai/ha Preemergence) | Plant response rating, Ragweed ([9]; 16 g ai/ha Preemergence) | Plant response rating, Ragweed ([9]; 31 g ai/ha Preemergence) | Plant response rating, Soybean (soybean (Glycine max); 8 g ai/ha Preemergence) | Plant response rating, Surinam Grass ([10]; 8 g ai/ha Preemergence) | Plant response rating, Surinam Grass ([10]; 16 g ai/ha Preemergence) | Plant response rating, Surinam Grass ([10]; 31 g ai/ha Preemergence) | Plant response rating, Surinam Grass ([10]; 125 g ai/ha Preemergence) | Plant response rating, Surinam Grass ([10]; Preemergence) | Plant response rating, Poinsettia, Wild ([12]; 8 g ai/ha Preemergence) | Plant response rating, Poinsettia, Wild ([12]; 16 g ai/ha Preemergence) | Plant response rating, Nutsedge, Yellow ([13]; 8 g ai/ha Preemergence) | Plant response rating, Nutsedge, Yellow ([13]; 16 g ai/ha Preemergence) | Plant response rating, Nutsedge, Yellow ([13]; 31 g ai/ha Preemergence) | Plant response rating, Nutsedge, Yellow ([13]; 125 g ai/ha Preemergence) | Plant response rating, Nutsedge, Yellow ([13]; Preemergence)
60: Plant response rating, Kochia (kochia (Kochia scoparia); 62 g ai/ha Postemergence) | Plant response rating, Poinsettia, Wild ([12]; 31 g ai/ha Postemergence) | Plant response rating, Poinsettia, Wild ([12]; 125 g ai/ha Postemergence)
50: Plant response rating, Field Bindweed ([4]; 125 g ai/ha Postemergence) | Plant response rating, Beggarticks ([6]; 31 g ai/ha Postemergence) | Plant response rating, Beggarticks ([6]; 62 g ai/ha Postemergence) | Plant response rating, Crabgrass, Large ([7]; 31 g ai/ha Preemergence) | Plant response rating, Soybean (soybean (Glycine max); 8 g ai/ha Postemergence) | Plant response rating, Soybean (soybean (Glycine max); 16 g ai/ha Postemergence) | Plant response rating, Poinsettia, Wild ([12]; 62 g ai/ha Postemergence)
5: Plant response rating, Crabgrass, Brazil ([1]; 8 g ai/ha Postemergence) | Plant response rating, Crabgrass, Brazil ([1]; 16 g ai/ha Postemergence) | Plant response rating, Crabgrass, Brazil ([1]; 31 g ai/ha Postemergence) | Plant response rating, Corn (corn (Zea mays); 62 g ai/ha Postemergence) | Plant response rating, Corn (corn (Zea mays); 125 g ai/ha Postemergence) | Plant response rating, Goosegrass ([5]; 31 g ai/ha Preemergence) | Plant response rating, Goosegrass ([5]; Preemergence)
30: Plant response rating, Field Bindweed ([4]; 62 g ai/ha Postemergence) | Plant response rating, Kochia (kochia (Kochia scoparia); 8 g ai/ha Postemergence) | Plant response rating, Kochia (kochia (Kochia scoparia); 31 g ai/ha Postemergence) | Plant response rating, Kochia (kochia (Kochia scoparia); 125 g ai/ha Preemergence) | Plant response rating, Poinsettia, Wild ([12]; 8 g ai/ha Postemergence) | Plant response rating, Poinsettia, Wild ([12]; 16 g ai/ha Postemergence)
70: Plant response rating, Soybean (soybean (Glycine max); 31 g ai/ha Postemergence) | Plant response rating, Velvetleaf ([11]; 16 g ai/ha Preemergence)
65: Plant response rating, Panicum, Fall ([3]; 31 g ai/ha Preemergence) | Plant response rating, Beggarticks ([6]; 125 g ai/ha Postemergence) | Plant response rating, Crabgrass, Large ([7]; 62 g ai/ha Preemergence) | Plant response rating, Nightshade ([8]; 16 g ai/ha Preemergence)
35: Plant response rating, Crabgrass, Brazil ([1]; 62 g ai/ha Preemergence) | Plant response rating, Panicum, Fall ([3]; 16 g ai/ha Preemergence) | Plant response rating, Soybean (soybean (Glycine max); Preemergence)
80: Plant response rating, Crabgrass, Large ([7]; 125 g ai/ha Preemergence) | Plant response rating, Nightshade ([8]; 31 g ai/ha Preemergence)
20: Plant response rating, Field Bindweed ([4]; 31 g ai/ha Postemergence) | Plant response rating, Beggarticks ([6]; 125 g ai/ha Preemergence) | Plant response rating, Crabgrass, Large ([7]; 16 g ai/ha Preemergence) | Plant response rating, Soybean (soybean (Glycine max); 31 g ai/ha Preemergence) | Plant response rating, Velvetleaf ([11]; 8 g ai/ha Preemergence) | Plant response rating, Poinsettia, Wild ([12]; 31 g ai/ha Preemergence) | Plant response rating, Poinsettia, Wild ([12]; 125 g ai/ha Preemergence) | Plant response rating, Poinsettia, Wild ([12]; Preemergence)
98: Plant response rating, Nightshade ([8]; 125 g ai/ha Preemergence)
95: Plant response rating, Soybean (soybean (Glycine max); 125 g ai/ha Postemergence)
